Experimental data taken from patent US20250127801A1, “BRIDGED TRICYCLIC CARBAMOYLPYRIDONE COMPOUNDS AND USES THEREOF” (priority 2023, published 2025).
Converted amounts (≈) assume the structure as drawn. Read-outs that look alike come from different tables or passages of the source.

How the values were obtained:
[1] = system: HIV-1 (IIIB); assay: microbe, parasite or virus in culture; assay type: cell-based
[2] = in vitro; details: human; for CC50 at 5 days: uninfected MT-4 cells
[3] = physchem; details: 23 °C, thermodynamic from solid; for solubility thermodynamic at 24 h: FaSSIF; for solubility thermodynamic: fassif
[4] = Human immunodeficiency virus 1, MT4, 120 h, HIV-1 (IIIB) replication in MT-4 cells, 5 days incubation, Cell Titer Glo, read-out: MT4 EC50
[5] = Human immunodeficiency virus 1, IIIB, MT4, 120 h, read-out: MT4 EC50 (nM)

SMILES | EC50 [1, 4] | CC50 at 5 days [2] | solubility thermodynamic at 24 h [3] | EC50 [1, 5] | CC50 [2] | solubility thermodynamic [3]
CC1=NO[C@@]2(CC[C@H](C)N3C[C@H]2n2cc(C(=O)NCc4ccc(F)cc4F)c(=O)c(OCOC(=O)OCC4(COP(=O)(O)O)CCC4)c2C3=O)C1 [Compound 47, (((3′S,5S,7′R)-10′-((2,4-difluorobenzyl)carbamoyl)-3,3′-dimethyl-1′,11′-dioxo-1′,4′,5′,11′-tetrahydro-3′H,4H,7′H-spiro[isoxazole-5,6′-[2,7]methanopyrido[1,2-a][1,4]diazonin]-12′-yl)oxy)methyl ((1-((phosphonooxy)methyl)cyclobutyl)methyl) carbonate] | 2.22 nM | 11.2 µM | 4.86 mg/mL (≈ 6.57 mM) | – | – | –
CC1=NO[C@@]2(CC[C@H](C)N3C[C@H]2n2cc(C(=O)NCc4ccc(F)cc4F)c(=O)c(OCOC(=O)N(C)C[C@@H]4CCCN4C(=O)OCOP(=O)(O)O)c2C3=O)C1 [Compound 14, (phosphonooxy)methyl (2S)-2-(((((((3′S,5S,7′R)-10′-((2,4-difluorobenzyl)carbamoyl)-3,3′-dimethyl-1′,11′-dioxo-1′,4′,5′,11′-tetrahydro-3′H,4H,7′H-spiro[isoxazole-5,6′-[2,7]methanopyrido[1,2-a][1,4]diazonin]-12′-yl)oxy)methoxy)carbonyl)(methyl)amino)methyl)pyrrolidine-1-carboxylate] | 1.25 nM | 16.8 µM | 5.09 mg/mL (≈ 6.28 mM) | – | – | –
CC1=NO[C@@]2(CC[C@H](C)N3C[C@H]2n2cc(C(=O)NCc4ccc(F)cc4F)c(=O)c(OCOC(=O)OC[C@@H]4C[C@@H]4COP(=O)(O)O)c2C3=O)C1 [Compound 49, (((3′S,5S,7′R)-10′-((2,4-difluorobenzyl)carbamoyl)-3,3′-dimethyl-1′,11′-dioxo-1′,4′,5′,11′-tetrahydro-3′H,4H,7′H-spiro[isoxazole-5,6′-[2,7]methanopyrido[1,2-a][1,4]diazonin]-12′-yl)oxy)methyl (((1R,2S)-2-((phosphonooxy)methyl)cyclopropyl)methyl) carbonate] | 4.17 nM | 23.3 µM | 4.89 mg/mL (≈ 6.75 mM) | – | – | –
CC1=NO[C@@]2(CC[C@H](C)N3C[C@H]2n2cc(C(=O)NCc4ccc(F)cc4F)c(=O)c(OCOC(=O)OCc4ccncc4OP(=O)(O)O)c2C3=O)C1 [Compound 72, (((3′S,5S,7′R)-10′-((2,4-difluorobenzyl)carbamoyl)-3,3′-dimethyl-1′,11′-dioxo-1′,4′,5′,11′-tetrahydro-3′H,4H,7′H-spiro[isoxazole-5,6′-[2,7]methanopyrido[1,2-a][1,4]diazonin]-12′-yl)oxy)methyl ((3-(phosphonooxy)pyridin-4-yl)methyl) carbonate] | – | – | – | 1.34 nM | 11.2 µM | 2.56 mg/mL (≈ 3.42 mM)
CC1=NO[C@@]2(CC[C@H](C)N3C[C@H]2n2cc(C(=O)NCc4ccc(F)cc4F)c(=O)c(OCOC(=O)N(C)Cc4cc(C(=O)O)ccc4OP(=O)(O)O)c2C3=O)C1 [Compound 76, 3-(((((((3′S,5S,7′R)-10′-((2,4-difluorobenzyl)carbamoyl)-3,3′-dimethyl-1′,11′-dioxo-1′,4′,5′,11′-tetrahydro-3′H,4H,7′H-spiro[isoxazole-5,6′-[2,7]methanopyrido[1,2-a][1,4]diazonin]-12′-yl)oxy)methoxy)carbonyl)(methyl)amino)methyl)-4-(phosphonooxy)benzoic acid] | – | – | – | 4.41 nM | 12.9 µM | 4.06 mg/mL (≈ 5.05 mM)
CC1=NO[C@@]2(CC[C@H](C)N3C[C@H]2n2cc(C(=O)NCc4ccc(F)cc4F)c(=O)c(OC(=O)N(C)c4ncccc4COP(=O)(O)O)c2C3=O)C1 [Compound 1, (3′S,5S,7′R)-10′-((2,4-difluorobenzyl)carbamoyl)-3,3′-dimethyl-1′,11′-dioxo-1′,4′,5′,11′-tetrahydro-3′H,4H,7′H-spiro[isoxazole-5,6′-[2,7]methanopyrido[1,2-a][1,4]diazonin]-12′-yl methyl(3-((phosphonooxy)methyl)pyridin-2-yl)carbamate] | – | – | – | 3.48 nM | 15.9 µM | 4.91 mg/mL (≈ 6.71 mM)
CC1=NO[C@@]2(CC[C@H](C)N3C[C@H]2n2cc(C(=O)NCc4ccc(F)cc4F)c(=O)c(OC(=O)N(C)c4ncc(C(=O)O)cc4COP(=O)(O)O)c2C3=O)C1 [Compound 4, 6-(((((3′S,5S,7′R)-10′-((2,4-difluorobenzyl)carbamoyl)-3,3′-dimethyl-1′,11′-dioxo-1′,4′,5′,11′-tetrahydro-3′H,4H,7′H-spiro[isoxazole-5,6′-[2,7]methanopyrido[1,2-a][1,4]diazonin]-12′-yl)oxy)carbonyl)(methyl)amino)-5-((phosphonooxy)methyl)nicotinic acid] | – | – | – | 14.8 nM | ≥ 50 µM | 4.8 mg/mL (≈ 6.2 mM)
CC1=NO[C@@]2(CC[C@H](C)N3C[C@H]2n2cc(C(=O)NCc4ccc(F)cc4F)c(=O)c(OCOC(=O)OCCC(C)(C)c4c(CC(=O)N[C@@H](CC(=O)O)C(=O)O)cc(C)cc4OP(=O)(O)O)c2C3=O)C1 [Compound 24, (2-(2-(4-((((((3′S,5S,7′R)-10′-((2,4-difluorobenzyl)carbamoyl)-3,3′-dimethyl-1′,11′-dioxo-1′,4′,5′,11′-tetrahydro-3′H,4H,7′H-spiro[isoxazole-5,6′-[2,7]methanopyrido[1,2-a][1,4]diazonin]-12′-yl)oxy)methoxy)carbonyl)oxy)-2-methylbutan-2-yl)-5-methyl-3-(phosphonooxy)phenyl)acetyl)-L-aspartic acid] | – | – | – | 1.98 nM | 12.3 µM | 4.9 mg/mL (≈ 4.95 mM)
CC1=NO[C@@]2(CC[C@H](C)N3C[C@H]2n2cc(C(=O)NCc4ccc(F)cc4F)c(=O)c(OCOC(=O)N(C)c4ncccc4COP(=O)(O)O)c2C3=O)C1 [Compound 2, (((3′S,5S,7′R)-10′-((2,4-difluorobenzyl)carbamoyl)-3,3′-dimethyl-1′,11′-dioxo-1′,4′,5′,11′-tetrahydro-3′H,4H,7′H-spiro[isoxazole-5,6′-[2,7]methanopyrido[1,2-a][1,4]diazonin]-12′-yl)oxy)methyl methyl(3-((phosphonooxy)methyl)pyridin-2-yl)carbamate] | 1.49 nM | 10.2 µM | 4.95 mg/mL (≈ 6.51 mM) | – | – | –
CC1=NO[C@@]2(CC[C@H](C)N3C[C@H]2n2cc(C(=O)NCc4ccc(F)cc4F)c(=O)c(OCOC(=O)CC(C)(C)c4c(CC(=O)N5CCOCC5)cc(C)cc4OP(=O)(O)O)c2C3=O)C1 [Compound 58, (((3′S,5S,7′R)-10′-((2,4-difluorobenzyl)carbamoyl)-3,3′-dimethyl-1′,11′-dioxo-1′,4′,5′,11′-tetrahydro-3′H,4H,7′H-spiro[isoxazole-5,6′-[2,7]methanopyrido[1,2-a][1,4]diazonin]-12′-yl)oxy)methyl 3-methyl-3-(4-methyl-2-(2-morpholino-2-oxoethyl)-6-(phosphonooxy)phenyl)butanoate] | – | – | – | 5.78 nM | 29 µM | 4.65 mg/mL (≈ 5.08 mM)
CC1=NO[C@@]2(CC[C@H](C)N3C[C@H]2n2cc(C(=O)NCc4ccc(F)cc4F)c(=O)c(OCc4ccc(OP(=O)(O)O)cc4)c2C3=O)C1 [Compound 41, 4-((((3′S,5S,7′R)-10′-((2,4-difluorobenzyl)carbamoyl)-3,3′-dimethyl-1′,11′-dioxo-1′,4′,5′,11′-tetrahydro-3′H,4H,7′H-spiro[isoxazole-5,6′-[2,7]methanopyrido[1,2-a][1,4]diazonin]-12′-yl)oxy)methyl)phenyl dihydrogen phosphate] | – | – | – | 0.727 nM | 12 µM | 5.08 mg/mL
CC1=NO[C@@]2(CC[C@H](C)N3C[C@H]2n2cc(C(=O)NCc4ccc(F)cc4F)c(=O)c(OCOC(=O)CC(C)(C)c4c(CC(=O)NCP(=O)(O)O)cc(C)cc4OP(=O)(O)O)c2C3=O)C1 [Compound 81, ((2-(2-(4-((((3′S,5S,7′R)-10′-((2,4-difluorobenzyl)carbamoyl)-3,3′-dimethyl-1′,11′-dioxo-1′,4′,5′,11′-tetrahydro-3′H,4H,7′H-spiro[isoxazole-5,6′-[2,7]methanopyrido[1,2-al][1,4]diazonin]-12′-yl)oxy)methoxy)-2-methyl-4-oxobutan-2-yl)-5-methyl-3-(phosphonooxy)phenyl)acetamido)methyl)phosphonic acid] | – | – | – | 2.09 nM | 14.4 µM | –
COCCN(Cc1cccnc1N(C)C(=O)Oc1c2n(cc(C(=O)NCc3ccc(F)cc3F)c1=O)[C@@H]1CN(C2=O)[C@@H](C)CC[C@]12CC(C)=NO2)C(=O)OCOP(=O)(O)O [Compound 83, (3′S,5S,7′R)-10′-((2,4-difluorobenzyl)carbamoyl)-3,3′-dimethyl-1′,11′-dioxo-1′,4′,5′,11′-tetrahydro-3′H,4H,7′H-spiro[isoxazole-5,6′-[2,7]methanopyrido[1,2-a][1,4]diazonin]-12′-yl (3-(((2-methoxyethyl)(((phosphonooxy)methoxy)carbonyl)amino)methyl)pyridin-2-yl)(methyl)carbamate] | – | – | – | 1.36 nM | 13.2 µM | –
CC1=NO[C@@]2(CC[C@H](C)N3C[C@H]2n2cc(C(=O)NCc4ccc(F)cc4F)c(=O)c(OC(=O)OCc4ccccc4OP(=O)(O)O)c2C3=O)C1 [Compound 32, (3′S,5S,7′R)-10′-((2,4-difluorobenzyl)carbamoyl)-3,3′-dimethyl-1′,11′-dioxo-1′,4′,5′,11′-tetrahydro-3′H,4H,7′H-spiro[isoxazole-5,6′-[2,7]methanopyrido[1,2-a][1,4]diazonin]-12′-yl (2-(phosphonooxy)benzyl) carbonate] | – | – | – | – | – | 1.33 mg/mL (≈ 1.86 mM)
CCCCCCCCCCCCCC(=O)Oc1ccc(CC(=O)Oc2c3n(cc(C(=O)NCc4ccc(F)cc4F)c2=O)[C@@H]2CN(C3=O)[C@@H](C)CC[C@]23CC(OC)=NO3)cc1 [Compound 95, [4-[2-[(1R,10S,13S)-4-[(2,4-difluorophenyl)methylcarbamoyl]-3′-methoxy-10-methyl-5,8-dioxo-spiro[2,9-diazatricyclo[7.4.1.02,7]tetradeca-3,6-diene-13,5′-4H-isoxazole]-6-yl]oxy-2-oxo-ethyl]phenyl] tetradecanoate] | 3.49 nM | ≥ 50 µM | – | – | – | –
